# pIC50: −log10 of the molar value. Read-outs that look alike come from different tables or passages of the source.
# Key:
# [1] = system: 2008 cell line; assay: MTT cytotoxicity assay, cisplatin-sensitive ovarian 2008 cells, with or without BSO; assay type: cell-based, Human; settings: for pIC50: Table 4
# Text: (§1) The ovarian A2780 and 2008 cell lines are sensitive to cisplatin, while the corresponding 2780CP and 2008/C13* cell lines were selected for resistance following in vitro exposure to cisplatin. The SKOV-3 cell line was established from a patient who was resistant to cisplatin therapy and is considered a model of cisplatin resistance. The A2780 and 2780CP cells have wild-type p53 function, while SKOV-3 is devoid of p53 function. The p53 status for the 2008 and 2008/C131 cells is presently not known.
# (§2) Procedure for Cytotoxic Evaluation. All cell lines are maintained in RPMI 1640 medium supplemented with 10% fetal bovine serum, 50 μg/ml penicillin, 50 μg/ml streptomycin, 100 μg/ml neomycin and 0.3 mg/ml L-glutamine. The ovarian lines also require 2 μg/ml insulin for maximal growth. Cells are grown as monolayers at 37° C. in a humidified atmosphere of 5% CO2:95% air. Cytotoxicity is determined by a standard MTT assay. Briefly, the exponentially-growing cells are trypsinized to dislodge them before use. After diluting the tumor cells to appropriate concentrations (2,000-30,000 cells/ml), 100 μl aliquots of the cell suspensions are added to each well of a 96-well microtiter plate. The cells are allowed to attach overnight, and then exposed for 24 hr to BSO at a concentration that is equal to or less than maximally tolerated concentration (MTC). At 22 hr after addition of BSO, the platinum complex is added, and 2 hr later the cells are washed and reincubated. After another 5 days, when control cells are in an exponential phase of growth, 50 μl of an MTT solution (3 mg/ml) is added to each well. Following a 3-hr incubation, the medium is removed and replaced by 50 μl of 100% DMSO to dissolve MTT formazan crystals. Plates are agitated on a plate shaker for 5 min, and absorbances are measured at 570 nm in a multiwell scanning spectrophotometer.
# (§3) IC50 values, defined as the drug concentration (μM) inhibiting cell growth by 50% compared to control wells, are determined by fitting a sigmoidal curve to the data using a computer program. Resistance factor is calculated as a ratio of the IC50 against resistant cell line to the IC50 against parent cell line. The dose modification factor (DMF) is derived from a ratio of IC50 without BSO to that with BSO.
# [2] = system: SKOV-3 cell line; assay: MTT cytotoxicity assay, cisplatin-resistant SKOV-3 cells, with or without BSO; assay type: cell-based, Human; settings: for pIC50: Table 4
# Text: as §1, §2, §3
# [3] = system: Human 2780CP cell line; assay: MTT cytotoxicity assay, cisplatin-resistant ovarian 2780CP cells, with or without BSO; assay type: cell-based; set-up: key to DMF vs. 2780CP Control (Without BSO) / DMF Control / DMF +BSO (MTC): DMF = IC50 without BSO / IC50 with BSO; settings: for pIC50: Table 4
# Text: as §1, §2, §3
# [4] = system: human melanoma cell line (RPMI 8322); settings: BSO pretreatment; RPMI 8322; cited from earlier work
# [5] = system: Human A2780 cell line; assay: MTT cytotoxicity assay, cisplatin-sensitive ovarian A2780 cells, with or without BSO; assay type: cell-based; settings: for pIC50: Table 4
# Text: as §1, §2, §3
# [6] = system: sensitive and resistant cells; settings: cited from earlier work
# [7] = system: 2008/C13* cell line; assay: MTT cytotoxicity assay, cisplatin-resistant ovarian 2008/C13* cells, with or without BSO; assay type: cell-based, Human; settings: for pIC50: Table 4
# Text: as §1, §2, §3
structure (smiles),measurement,setting,value
"N.N.[Cl][Pt][Cl] [Complex 1, cis-diamminedichloroplatinum, reference compound]",pIC50,"[1]; 2008, BSO at MTC, read-out: IC50 +BSO (MTC)",6.11
same,pIC50,"[1]; 2008, absence of BSO, read-out: IC50 Control",5.85
same,DMF +BSO (MTC),"[1]; Table 5, 2008, BSO at MTC",1.84
same,DMF Control,"[1]; Table 5, 2008, absence of BSO (reference)",1.00
same,RF Control,"[1]; Table 6, 2008 parent line without BSO (reference)",1.00
same,pIC50,"[2]; SKOV-3, BSO at sub-MTC, read-out: IC50 +BSO (MTC)",4.68
same,pIC50,"[2]; SKOV-3, absence of BSO, read-out: IC50 Control",4.48
same,DMF +BSO (MTC),"[2]; Table 5, SKOV-3, BSO at sub-MTC",1.56
same,DMF Control,"[2]; Table 5, SKOV-3, absence of BSO (reference)",1.00
same,RF +BSO (MTC),"[2]; Table 6, SKOV-3 with BSO vs. 2008 without BSO",14.9
same,RF Control,"[2]; Table 6, SKOV-3 without BSO vs. 2008 without BSO",23.2
same,Resistance Factor vs. 2780CP +10 μM BSO,[3]; IC50 2780CP with 10 μM BSO / IC50 A2780 without BSO,12.1
same,Resistance Factor vs. 2780CP +3 mM BSO (MTC),[3]; IC50 2780CP with 3 mM BSO (MTC) / IC50 A2780 without BSO,8.63
same,Resistance Factor vs. 2780CP Control (Without BSO),[3]; IC50 2780CP without BSO / IC50 A2780 without BSO,14.9
same,pIC50,"[3]; 2780CP, BSO at MTC, read-out: IC50 +BSO (MTC)",4.23
same,pIC50,"[3]; 2780CP, absence of BSO, read-out: IC50 Control",4.00
same,DMF +BSO (MTC),"[3]; Table 5, 2780CP, BSO at MTC",1.73
same,DMF Control,"[3]; Table 5, 2780CP, absence of BSO (reference)",1.00
same,RF +BSO (MTC),"[3]; Table 6, 2780CP with BSO vs. A2780 without BSO",8.63
same,RF Control,"[3]; Table 6, 2780CP without BSO vs. A2780 without BSO",14.9
same,increase in antitumor activity when combined with BSO,[3]; in both sensitive and resistant models (Table 2: A2780 and 2780CP),less than 2 fold
same,"dose modification factor (DMF), potentiation by BSO",[4],1.5
same,pIC50,"[5]; A2780, BSO at MTC, read-out: IC50 +BSO (MTC)",5.37
same,pIC50,"[5]; A2780, absence of BSO, read-out: IC50 Control",5.17
same,DMF +BSO (MTC),"[5]; Table 5, A2780, BSO at MTC",1.59
same,DMF Control,"[5]; Table 5, A2780, absence of BSO (reference)",1.00
same,RF Control,"[5]; Table 6, A2780 parent line without BSO (reference)",1.00
same,"increase in antitumor activity in combination with BSO, isolated publications",[6]; isolated publications,up to 4 fold
same,"increase in antitumor activity in combination with BSO, usual",[6]; usually,under 2 fold
same,pIC50,"[7]; 2008/C13*, BSO at MTC, read-out: IC50 +BSO (MTC)",4.98
same,pIC50,"[7]; 2008/C13*, absence of BSO, read-out: IC50 Control",4.68
same,DMF +BSO (MTC),"[7]; Table 5, 2008/C13*, BSO at MTC",2.00
same,DMF Control,"[7]; Table 5, 2008/C13*, absence of BSO (reference)",1.00
same,RF +BSO (MTC),"[7]; Table 6, 2008/C13* with BSO vs. 2008 without BSO",7.32
same,RF Control,"[7]; Table 6, 2008/C13* without BSO vs. 2008 without BSO",14.6
